Assay results reported in the PolyMetriX glass transition set.

With `*c1ccc(-c2ccc(N3C(=O)c4ccc(Oc5ccc(Sc6ccc(Oc7ccc8c(c7)C(=O)N(*)C8=O)cc6)cc5)cc4C3=O)cc2)cc1` (repeat unit) as the molecule, how does the glass transition temperature read?
The glass transition temperature was 257.00 °C.

With `*CC(*)OCCCCCCCCCCCOc1ccc(C(=O)Oc2ccc(OCC)cc2)cc1` (repeat unit) as the molecule, how does the glass transition temperature read?
Its glass transition temperature is 37.00 °C.

With `*Oc1ccc(C2(c3ccc(OC(=O)c4ccc(C(*)=O)cc4)cc3)CCCCC2)cc1` (repeat unit) as the molecule, how does the glass transition temperature read?
The glass transition temperature was 275.00 °C.

With `*CC(CO*)(CSC)CSC` (repeat unit) as the molecule, how does the glass transition temperature read?
The glass transition temperature was -6.00 °C.

With `*CC/C=C(/*)CCCCCCC` (repeat unit) as the molecule, how does the glass transition temperature read?
The glass transition temperature was -83.00 °C.

For `*Oc1cc(OC(=O)c2ccc(OC)cc2)c(OC(=O)CCCC(*)=O)cc1OC(=O)c1ccc(OC)cc1` (repeat unit), which glass transition temperature is on record?
Its glass transition temperature is 88.00 °C.

Which glass transition temperature does the source give for `*c1cc2c(cc1C)-c1cc(C)c(N3C(=O)c4ccc(-c5ccc6c(c5)C(=O)N(*)C6=O)cc4C3=O)cc1S2(=O)=O` (repeat unit) here?
The glass transition temperature was 490.00 °C.

Which glass transition temperature does the source give for `*O[Si](Oc1ccc(-c2ccc(*)cc2)cc1)(c1ccccc1)c1ccccc1` (repeat unit) here?
The glass transition temperature was 132.2 °C.

For `*O[Si](*)(CCCOCCOCCOCCOCCOCCOCCOC)CCCOCCOCCOCCOCCOCCOCCOC` (repeat unit), which glass transition temperature is on record?
Its glass transition temperature is -68.90 °C.

With `*Oc1ccc(C(=O)c2ccc(OC(=O)c3ccc(C(C)(C)c4ccc(C(*)=O)cc4)cc3)cc2)cc1` (repeat unit) as the molecule, how does the glass transition temperature read?
Its glass transition temperature is 130.00 °C.

For `*c1c(C)cc(Cc2cc(C)c(N3C(=O)c4cccc(Oc5c(C)cc(Cc6cc(C)c(Oc7cccc8c7C(=O)N(*)C8=O)c(C)c6)cc5C)c4C3=O)c(C)c2)cc1C` (repeat unit), which glass transition temperature is on record?
The glass transition temperature was 243.00 °C.

With `*Oc1ccc(C(C)(C)c2ccc(OC(=O)OCCCCOC(*)=O)cc2)cc1` (repeat unit) as the molecule, how does the glass transition temperature read?
Its glass transition temperature is 56.50 °C.

Which glass transition temperature does the source give for `*c1ccc(-c2nc3ccc(Oc4ccc5nc(*)c(-c6ccccc6)nc5c4)cc3nc2-c2ccccc2)cc1` (repeat unit) here?
The glass transition temperature was 304.00 °C.

Which glass transition temperature does the source give for `*CC(*)c1c([2H])c([2H])c([2H])c([2H])c1[2H]` (repeat unit) here?
The glass transition temperature was 100.00 °C.

Which glass transition temperature does the source give for `*OS(=O)(=O)c1cccc(S(=O)(=O)Oc2ccc(C3(c4ccc(*)cc4)CCCCC3)cc2)c1` (repeat unit) here?
The glass transition temperature was 127.00 °C.

With `*Oc1ccc(CC(NC(=O)Cc2ccc(OC(=O)CCC(*)=O)cc2)C(=O)OCCCCCCCC)cc1` (repeat unit) as the molecule, how does the glass transition temperature read?
Its glass transition temperature is 51.00 °C.

Which glass transition temperature does the source give for `*C(C)C(*)C(=O)OCC` (repeat unit) here?
The glass transition temperature was 157.00 °C.

Which glass transition temperature does the source give for `*CCCCCCOC(=O)OCCCCCCN1C(=O)c2ccc(C(=O)c3ccc4c(c3)C(=O)N(*)C4=O)cc2C1=O` (repeat unit) here?
The glass transition temperature was 76.00 °C.

Which glass transition temperature does the source give for `*Cc1cc2cc(C(=O)Nc3ccc(-c4ccc(NC(=O)c5cc6cc(*)c(OC(=O)COc7ccc8ccc(=O)oc8c7)cc6oc5=O)cc4)cc3)c(=O)oc2cc1OC(=O)COc1ccc2ccc(=O)oc2c1` (repeat unit) here?
Its glass transition temperature is 248.00 °C.

For `*c1ccc(Oc2cccc(Oc3ccc(N4C(=O)c5ccc(-c6ccc7c(c6)C(=O)N(*)C7=O)cc5C4=O)cc3)c2C#N)cc1` (repeat unit), which glass transition temperature is on record?
Its glass transition temperature is 271.00 °C.

For `*c1ccc(/C=C(\C#N)c2cc(OCCCCCCCC)c(/C(C#N)=C/c3ccc(N(*)c4ccccc4)cc3)cc2OCCCCCCCC)cc1` (repeat unit), which glass transition temperature is on record?
Its glass transition temperature is 78.00 °C.

With `*CC(CO*)(CSCC)CSCC` (repeat unit) as the molecule, how does the glass transition temperature read?
The glass transition temperature was -32.00 °C.

For `*Nc1ccc(Cc2ccc(NC(=O)c3cc(NC(=O)C(C(C)CC)N4C(=O)c5ccccc5C4=O)cc(C(*)=O)c3)cc2)cc1` (repeat unit), which glass transition temperature is on record?
The glass transition temperature was 195.00 °C.

With `*C(=O)Nc1cccc2c(NC(=O)c3ccc4c(c3)C(=O)N(c3ccc(Oc5cccc6c(N7C(=O)c8ccc(*)cc8C7=O)cccc56)cc3)C4=O)cccc12` (repeat unit) as the molecule, how does the glass transition temperature read?
Its glass transition temperature is 299.00 °C.

Which glass transition temperature does the source give for `*Oc1ccc(S(=O)(=O)c2ccc(Oc3ccc(C4(c5ccc(Oc6ccc(S(=O)(=O)c7ccc(Oc8ccc(/C=C9\CCC/C(=C\c%10ccc(*)cc%10)C9=O)cc8)cc7)cc6)cc5)CCCCC4)cc3)cc2)cc1` (repeat unit) here?
Its glass transition temperature is 190.00 °C.

With `*c1ccc2c(c1)C(=O)N(c1ccc(Oc3ccc(Oc4ccc(N5C(=O)c6ccc(C(*)(C(F)(F)F)C(F)(F)F)cc6C5=O)cc4)cc3)cc1)C2=O` (repeat unit) as the molecule, how does the glass transition temperature read?
The glass transition temperature was 279.00 °C.

With `*c1cccc(P(=O)(c2cccc(-n3c(=O)c4c(-c5ccc(C(F)(F)F)cc5)c5c(=O)n(*)c(=O)c5c(-c5ccc(C(F)(F)F)cc5)c4c3=O)c2)c2cc(C(F)(F)F)cc(C(F)(F)F)c2)c1` (repeat unit) as the molecule, how does the glass transition temperature read?
Its glass transition temperature is 310.00 °C.

Which glass transition temperature does the source give for `*CC(COC(=O)CCCCCN1C(=O)C2C3C=CC(C3)C2C1=O)O*` (repeat unit) here?
The glass transition temperature was 1.00 °C.

Which glass transition temperature does the source give for `*Oc1ccc(C2(C)CCC(C(C)(C)c3ccc(Oc4ccc(C(=O)c5ccc(*)cc5)cc4)cc3)CC2)cc1` (repeat unit) here?
The glass transition temperature was 200.00 °C.

For `*CCC[Si](*)(C)CCC[Si](C)(C)C` (repeat unit), which glass transition temperature is on record?
The glass transition temperature was -46.00 °C.

Which glass transition temperature does the source give for `*Oc1ccc(CC(NC(=O)CCc2ccc(OC(=O)CCCCC(*)=O)cc2)C(=O)OC(C)CC)cc1` (repeat unit) here?
The glass transition temperature was 50.00 °C.

Which glass transition temperature does the source give for `*CCN(*)C(=O)c1cc(F)c(F)cc1F` (repeat unit) here?
The glass transition temperature was 105.00 °C.

For `*CCCCCCCCCCCCCNC(=O)CCCCCCCCCCCC(=O)N*` (repeat unit), which glass transition temperature is on record?
Its glass transition temperature is 56.50 °C.

With `*/C=C/c1c(OC(=O)c2ccc(C(=O)Oc3ccc4ccccc4c3/C=C/c3cccc(*)n3)cc2)ccc2ccccc12` (repeat unit) as the molecule, how does the glass transition temperature read?
The glass transition temperature was 145.00 °C.

For `*[O][Sn]([CH2]CCC)([CH2]CCC)[O]C(=O)c1ccc(C(*)=O)cc1` (repeat unit), which glass transition temperature is on record?
Its glass transition temperature is 315.00 °C.

Which glass transition temperature does the source give for `*c1ccc(Oc2ccc(-c3cnc4ccc(-c5ccc6ncc(*)nc6c5)cc4n3)cc2)cc1` (repeat unit) here?
Its glass transition temperature is 305.00 °C.

For `*C(=O)Nc1ccc(C2(c3ccc(N4C(=O)c5ccc(*)cc5C4=O)cc3)CCC(C(C)(C)CC)CC2)cc1` (repeat unit), which glass transition temperature is on record?
Its glass transition temperature is 342.00 °C.

Which glass transition temperature does the source give for `*Oc1ccc(OC(=O)c2ccc(C(*)=O)cc2Sc2ccc(Cl)cc2)cc1` (repeat unit) here?
Its glass transition temperature is 140.00 °C.

For `*Oc1ccc(OC(=O)c2ccc(C(*)=O)cc2Oc2ccc(C(C)(C)c3ccccc3)cc2)cc1` (repeat unit), which glass transition temperature is on record?
The glass transition temperature was 93.00 °C.

Which glass transition temperature does the source give for `*CC(*)C(=O)OCC(F)(F)C(F)(F)C(F)(F)C(F)(F)C(F)(F)C(F)(F)C(F)(F)F` (repeat unit) here?
Its glass transition temperature is -17.00 °C.

For `*CC1CC(*)C(=O)OC1=O` (repeat unit), which glass transition temperature is on record?
Its glass transition temperature is 140.00 °C.

For `*CC(*)(CCCCCCCC)C(=O)OC` (repeat unit), which glass transition temperature is on record?
Its glass transition temperature is 34.00 °C.

With `*CC#C/C(C#CCOC(=O)CCCCCCCCC(=O)O*)=C\c1ccc(C#Cc2ccc(C=C(C#Cc3ccccc3)C#Cc3ccccc3)cc2)cc1` (repeat unit) as the molecule, how does the glass transition temperature read?
The glass transition temperature was 60.00 °C.

For `*CC(*)(C)C(=O)OCCCCCCCCCCCC` (repeat unit), which glass transition temperature is on record?
The glass transition temperature was -47.90 °C.

Which glass transition temperature does the source give for `*Oc1ccc(C(C)(C)c2ccc(Oc3ccc(C(=O)c4ccccc4-c4ccccc4C(=O)c4ccc(*)cc4)cc3)cc2)cc1` (repeat unit) here?
The glass transition temperature was 172.00 °C.

With `*Nc1ccc(C(c2ccc(NC(=O)c3ccc(C(c4ccc(C(*)=O)cc4)(C(F)(F)F)C(F)(F)F)cc3)cc2)(P2(=O)Oc3ccccc3-c3ccccc32)P2(=O)Oc3ccccc3-c3ccccc32)cc1` (repeat unit) as the molecule, how does the glass transition temperature read?
Its glass transition temperature is 235.00 °C.

Which glass transition temperature does the source give for `*CCC[Si](*)(C)c1cccc(C)c1` (repeat unit) here?
The glass transition temperature was -25.00 °C.
